From patent US20080261895A1 (Wyeth, priority 2006, published 2008)
Values joined by “and” are separate entries in the source; they are usually repeats but may differ in a detail not shown here. Equal values may be shown once.

What was measured:
[1] = Plasma metabolite profile by radiochromatography, dogs; type: in vivo, beagle dogs; conditions: single oral 30 mg/kg DVS
Experimental: Plasma samples collected at 1 and 4 hours post-dose were analyzed for metabolite profiles. Aliquots of 1 mL plasma were mixed with an equal volume of acetonitrile, placed on ice for at least 10 minutes, and then centrifuged at 14000 rpm in an Eppendorf Model 5415C centrifuge for 10 minutes. The supernatant fluid was transferred to a clean tube. The supernatant was analyzed for radioactivity. The supernatant was concentrated under a stream of nitrogen in a Turbo Vap (Zymark, Hopinkton, Mass.) to remove the acetonitrile. An aliquot of the aqueous residue was analyzed by HPLC for profiling. Selected samples were also analyzed by LC/MS to characterize the radioactive peaks.
Chromatographic analyses were performed with a Waters Alliance model 2690 HPLC system (Waters Corp., Milford, Mass.). It was equipped with a built-in autosampler and was in-line with a model 2487 tunable UV detector, set to monitor 225 nm, and a FloOne β Model 515 radioactivity flow detector (Perkin Elmer) with a 250 μL LQTR flow cell. The flow rate of Ultima Flow M scintillation fluid was 3 mL/min, providing a mixing ratio of scintillation cocktail to mobile phase of 3:1. […]

[2] = Urinary excretion and metabolite profile by radiochromatography, rats; type: in vivo, Sprague Dawley rats; conditions: for Compounds Detected by Radiochromatography in urine (Mean ± S.D., n = 3), percent of total peaks: single oral 20 mg/kg
Experimental: (§1) Urine and feces were collected separately on dry ice from three animals per sex. Collections were from 0-8 and 8-24 hours for male rats and 0-8 hours for female rats. Fecal samples were homogenized in approximately five volumes (v/w) of water. Aliquots of approximately 0.4 grams of the homogenate were placed into combusto-cones, weighed and allowed to air dry. These samples were then oxidized. The remaining urine samples and fecal homogenates were stored at −70° C. until metabolite analysis.
All urine samples were analyzed for metabolite profiles. Aliquots of 0.5 mL urine were centrifuged at 3500 rpm and 4° C. in a Sorvall Super 21 centrifuge for 10 minutes. The supernatant was transferred to a fresh tube and analyzed for radioactivity content and by HPLC for profiling. Selected samples were also analyzed by LC/MS to characterize the radioactive peaks.
(§2) Chromatographic analyses were performed with a Waters Alliance model 2690 HPLC system (Waters Corp., Milford, Mass.). It was equipped with a built-in autosampler and was in-line with a model 2487 tunable UV detector, set to monitor 225 nm, and a FloOne β Model 525 radioactivity flow detector (Perkin Elmer) with a 250 μL LQTR flow cell. The flow rate of Ultima Flow M scintillation fluid was 1 mL/min, providing a mixing ratio of scintillation cocktail to mobile phase of 5:1. Separation of the metabolite peaks was accomplished on a Phenomenex Luna C18(2) column, 150×2.0 mm, 5 micron (Phenomenex, Torrance, Calif.), using a linear gradient of two mobile phases, A and B. Mobile phase A was 10 mM ammonium acetate, pH 6.0, and mobile phase B was acetonitrile. The flow rate was 0.2 mL/min.

[3] = Urinary excretion and metabolite profile by radiochromatography, dogs; type: in vivo, beagle dogs; conditions: urine 8-24 hours post-dose, single oral 30 mg/kg, mean of 2 analyses, 30 mg/kg
Experimental: (§3) For each dog, urine and feces were collected separately, with urine collected on dry ice and feces collected at room temperature. Collections were from 0-8 and 8-24 hours for urine and 0-24 hours for feces. Urine and fecal samples were shipped on dry ice to Wyeth Research, Biotransformation Division (Collegeville, Pa.) for analysis. Fecal samples were homogenized in approximately five volumes (v/w) of water. Aliquots of approximately 0.2 grams of the homogenate were placed into combusto-cones, weighed and allowed to air dry. These samples were then oxidized and radioactivity content determined. The remaining urine samples and fecal homogenates were stored at −70° C. until metabolite analysis. Blood samples and fecal homogenates were oxidized in a Model 307 Tri-Carb sample oxidizer, using Carbosorb® E (6 mL) as trapping agent and PermaFluor® E^+ (10 mL) as scintillant. The background reading (average of control blood or fecal samples) was subtracted from each sample reading. Aliquots of urine and plasma were analyzed directly following the addition of 10 mL of Ultima Gold™ scintillation fluid.
Urine samples collected between 8 and 24 hours post-dose were analyzed for metabolite profiles. Aliquots of urine were centrifuged at 14000 rpm in an Eppendorf Model 5415C centrifuge for 10 minutes. The supernatant was transferred to a fresh tube and analyzed for radioactivity content and by HPLC for metabolite profiling. Selected samples were also analyzed by LC/MS to characterize the radioactive peaks.
as §2, with “β Model 515 radioactivity flow” for “β Model 525 radioactivity flow”, “fluid was 3 mL/min, providing” for “fluid was 1 mL/min, providing”, “phase of 3:1. Separation of” for “phase of 5:1. Separation of”, “C18(2) column, 250×4.6 mm, 5” for “C18(2) column, 150×2.0 mm, 5”, “acetate, pH 5.5, and mobile” for “acetate, pH 6.0, and mobile”, “rate was 1 mL/min.” for “rate was 0.2 mL/min.”

[4] = Metabolites of DVS observed by LC/MS in rat plasma, urine and feces; type: in vivo, Sprague Dawley rats; conditions: P: plasma, U: urine, F: feces
Experimental: An Agilent Model 1100 HPLC system (Agilent Technologies, Wilmington, Del.) including an autosampler and diode array UV detector was used for LC/MS analysis. The UV detector was set to monitor 200 to 400 nm. Separations were accomplished on a 5 micron Phenomenex Luna C18(2) column, 150×2 mm (Phenomenex). The column temperature was 25° C. The mobile phases and gradient program were as follows.
The mass spectrometer used for metabolite characterization was a Micromass Q-TOF-2 quadrupole time-of-flight hybrid mass spectrometer (Micromass, Inc., Beverly, Mass.). The mass spectrometer was equipped with an electrospray ionization (ESI) interface and operated in the positive ionization mode.

[5] = Metabolites of DVS observed by LC/MS in dog plasma, urine and feces; type: in vivo, beagle dogs; conditions: P: plasma, U: urine, F: feces
Experimental: An Agilent Model 1100 HPLC system (Agilent Technologies, Wilmington, Del.) including an autosampler and diode array UV detector was used for LC/MS analysis. The UV detector was set to monitor 200 to 400 nm. Separations were accomplished on a 5 micron Phenomenex Luna C18(2) column, 150×2 mm (Phenomenex). The column temperature was 25° C. For selected LC/MS analyses, radiochromatograms were acquired using a β-RAM model 3 radioactivity flow detector (IN/US Systems Inc., Tampa, Fla.) equipped with a solid scintillation flow cell.
The mass spectrometers used for metabolite characterization were a Micromass Q-TOF-2 quadrupole time-of-flight hybrid mass spectrometer (Micromass, Inc., Beverly, Mass.) and a Finnigan LCQ Deca ion trap mass spectrometer (ThermoFinnigan, San Jose, Calif.). The mass spectrometer was equipped with an electrospray ionization (ESI) interface and operated in the positive ionization mode.

[6] = Plasma metabolite profile by radiochromatography, rats; type: in vivo, Sprague Dawley rats; conditions: single oral 20 mg/kg DVS
Experimental: Plasma samples collected at 1, 4 and 8 hours post-dose were analyzed for metabolite profiles. Aliquots of 0.5 mL plasma were mixed with an equal volume of acetonitrile, placed on ice for approximately 10 minutes, and then centrifuged at 3500 rpm and 4° C. in a Sorvall Super 21 centrifuge for 10 minutes. The supernatant fluid was transferred to a clean tube. The supernatant was analyzed for radioactivity. The supernatant was concentrated under a stream of nitrogen in a Turbo Vap (Zymark, Hopinkton, Mass.) to remove the acetonitrile. An aliquot of the aqueous residue was analyzed by HPLC for metabolite profiling. Selected samples were also analyzed by LC/MS to characterize the radioactive peaks.
as §2

[7] = Fecal excretion and metabolite profile by radiochromatography, rats; type: in vivo, Sprague Dawley rats; conditions: male rats, feces 8-24 hours post-dose, single oral 20 mg/kg, 20 mg/kg
Experimental: as §1
Fecal homogenates collected from male rats between 8 and 24 hours post-dose were analyzed for metabolite profiles. Aliquots of approximately 1 gram of fecal homogenate were centrifuged at 3500 rpm and 4° C. in a Sorvall Super 21 centrifuge for 10 minutes. The supernatant was transferred to a clean tube. The residue was re-suspended with 1 mL of water:acetonitrile (1:1, v:v) and centrifuged as described above. The resulting supernatant was combined with the original supernatant and the residue re-suspended with 1 mL of acetonitrile. The suspension was centrifuged as described above, and the supernatants were combined and analyzed for radioactivity. The supernatants were then concentrated under a stream of nitrogen in a Turbo Vap to remove the acetonitrile. An aliquot of the aqueous residue was analyzed by HPLC for profiling. Selected samples were also analyzed by LC/MS to characterize the radioactive peaks.
as §2

[8] = Fecal excretion and metabolite profile by radiochromatography, dogs; type: in vivo, beagle dogs; conditions: single oral 30 mg/kg; for Compounds Detected by Radiochromatography in feces, percent of total peaks, individual dogs: feces 0-24 hours post dose (dog 7 until 48 hours), average of 2 analyses; for Compounds Detected by Radiochromatography in feces, percent of total peaks, Mean ± S.D.: feces 0-24 hours post dose
Experimental: as §3
Fecal homogenates collected up to 24 hours post-dose were analyzed for metabolite profiles. Aliquots of approximately 2 grams of fecal homogenate were transferred to a fresh tube, an equal volume of acetonitrile (v/w) was added, and the tube vortexed. Samples were then centrifuged at 14000 rpm in an Eppendorf Model 5415C centrifuge for 10 minutes. The supernatant was transferred to a clean tube. The residue was re-suspended with 1 mL acetonitrile and centrifuged as described above. The resulting supernatant was combined with the original supernatant and analyzed for radioactivity. The supernatants were then concentrated under a stream of nitrogen in a Turbo Vap to remove the acetonitrile. An aliquot of the aqueous residue was analyzed by HPLC for profiling. Selected samples were also analyzed by LC/MS to characterize the radioactive peaks.
as §2, with “β Model 515 radioactivity flow” for “β Model 525 radioactivity flow”, “fluid was 3 mL/min, providing” for “fluid was 1 mL/min, providing”, “phase of 3:1. Separation of” for “phase of 5:1. Separation of”, “C18(2) column, 250×4.6 mm, 5” for “C18(2) column, 150×2.0 mm, 5”, “acetate, pH 5.5, and mobile” for “acetate, pH 6.0, and mobile”, “rate was 1 mL/min.” for “rate was 0.2 mL/min.”

Structure (SMILES)	Compounds Detected by Radiochromatography in urine, percent of total peaks, individual dogs [3]	Matrix (metabolite observed by LC/MS) [4]	Matrix (metabolite observed by LC/MS) [5]	Compounds Detected by Radiochromatography in feces, percent of total peaks, Mean ± S.D. [7]	Compounds Detected by Radiochromatography in feces, percent of total peaks, individual dogs [8]	Compounds Detected by Radiochromatography in feces, percent of total peaks, Mean ± S.D. [8]	further results
CN(C)CC(c1ccc(O[C@@H]2O[C@H](C(=O)O)[C@@H](O)[C@H](O)[C@H]2O)cc1)C1(O)CCCCC1 (some centres unmarked) [Metabolite M7, O-desmethylvenlafaxine O-glucuronide]	84.1% and 83.5% and 83.9% and 86.8%	P, U, F	P, U, F	–	–	–	% of the radioactivity detected in plasma ([1]; 1 hour post-dose): 77.5%; % of the radioactivity detected in plasma ([1]; 4 hours post-dose): 96.4%; % of the radioactivity detected in urine ([2]; all urine samples at each time point): approximately 75%; Compounds Detected by Radiochromatography in urine (Mean ± S.D., n = 3), percent of total peaks ([2]; 0-8 hr, female): 74.0 ± 3.3%; Compounds Detected by Radiochromatography in urine (Mean ± S.D., n = 3), percent of total peaks ([2]; 0-8 hr, male): 76.5 ± 1.9%; Compounds Detected by Radiochromatography in urine (Mean ± S.D., n = 3), percent of total peaks ([2]; 8-24 hr, male): 77.2 ± 1.2%; % of the radioactivity in plasma ([6]; female rats, 1 hour post-dose): 86.6%; % of the radioactivity in plasma ([6]; male rats, 1 hour post-dose): 88.7%; % of the radioactivity in plasma ([6]; male rats, 4 hours post-dose): 93.6%
CN(C)CC(O)(c1ccc(O)cc1)C1(O)CCCCC1 (centres unmarked) [Metabolite M9, Hydroxy DV]	–	–	U, F	–	–	–	–
CNCC(c1ccc(O)cc1)C1(O)CCCCC1 (centres unmarked) [Metabolite M10, N,O-didesmethylvenlafaxine]	–	P, U, F	P, U, F	34% and 33.6 ± 0.9%	9.8% and 17.7% and 8.6% and 11.2%	–	Compounds Detected by Radiochromatography in feces, percent of total peaks, individual rats [7]: 34.5% and 32.6% and 33.6%
CNCC(c1ccc(O[C@@H]2O[C@H](C(=O)O)[C@@H](O)[C@H](O)[C@H]2O)cc1)C1(O)CCCCC1 (some centres unmarked) [Metabolite M13, N,O-didesmethylvenlafaxine O-glucuronide]	3.3% and 3.5% and 4.3% and 3.6%	P, U	P, U	–	–	–	–
NCC(c1ccc(O)cc1)C1(O)CCCCC1 (centres unmarked) [Metabolite M14, N,N,O-tridesmethylvenlafaxine]	–	–	U, F	–	4.4% and 16.1% and 0.0% (2×)	5.1 ± 7.0%	–
C[N+](C)([O-])CC(c1ccc(O)cc1)C1(O)CCCCC1 (centres unmarked) [N-oxide DV]	–	P, U, F^b	P, U, F	7%	7.3% and 15.7% and 5.7% and 0.0%	approximately 7%	Compounds Detected by Radiochromatography in feces, percent of total peaks, Mean ± S.D. ([7]; listed as N-Oxide): 7.1 ± 1.3%; Compounds Detected by Radiochromatography in feces, percent of total peaks, individual rats ([7]; listed as N-Oxide): 6.0% and 6.7% and 8.5%; Compounds Detected by Radiochromatography in feces, percent of total peaks, Mean ± S.D. ([8]; listed as N-Oxide): 7.2 ± 6.1%
